{"source": "paper PMC9329436", "about": "“Optimization of the 4-anilinoquin(az)oline scaffold as epidermal growth factor receptor (EGFR) inhibitors for chordoma utilizing a toxicology profiling assay platform” (Scientific Reports, 2022)", "format_in_all_cases": "biochemical", "key": {"[1]": {"molecular_target": "320 wild-type protein kinases (Homo sapiens, UniProt Q9UK32)", "sequence (Q9UK32 whole entry)": "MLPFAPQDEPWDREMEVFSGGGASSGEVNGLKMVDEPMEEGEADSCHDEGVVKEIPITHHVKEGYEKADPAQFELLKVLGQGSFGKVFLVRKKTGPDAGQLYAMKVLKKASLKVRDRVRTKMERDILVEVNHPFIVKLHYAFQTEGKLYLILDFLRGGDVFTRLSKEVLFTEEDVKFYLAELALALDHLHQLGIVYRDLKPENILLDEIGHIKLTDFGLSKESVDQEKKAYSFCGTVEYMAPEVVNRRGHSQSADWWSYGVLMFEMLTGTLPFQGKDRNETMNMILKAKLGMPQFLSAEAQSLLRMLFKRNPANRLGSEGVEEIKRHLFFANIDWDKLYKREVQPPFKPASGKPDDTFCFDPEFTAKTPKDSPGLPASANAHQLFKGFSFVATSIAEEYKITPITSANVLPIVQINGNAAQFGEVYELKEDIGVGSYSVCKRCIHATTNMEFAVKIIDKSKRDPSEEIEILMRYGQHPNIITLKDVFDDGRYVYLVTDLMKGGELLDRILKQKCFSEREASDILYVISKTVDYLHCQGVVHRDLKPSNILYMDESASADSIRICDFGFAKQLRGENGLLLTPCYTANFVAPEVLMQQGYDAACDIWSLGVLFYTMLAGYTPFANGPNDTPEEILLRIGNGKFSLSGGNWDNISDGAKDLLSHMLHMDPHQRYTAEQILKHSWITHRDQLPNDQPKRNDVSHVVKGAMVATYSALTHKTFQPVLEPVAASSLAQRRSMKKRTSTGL", "settings": "kinase RPS6KA6, singlicate", "from_the_text": "(§1) Table S4. Profiling of two compounds at two concentrations against 320 wild-type protein kinases; singlicate measurement; Residual activities (% of control)."}, "[2]": {"molecular_target": "320 wild-type protein kinases (Homo sapiens, UniProt O75914)", "sequence (O75914 whole entry)": "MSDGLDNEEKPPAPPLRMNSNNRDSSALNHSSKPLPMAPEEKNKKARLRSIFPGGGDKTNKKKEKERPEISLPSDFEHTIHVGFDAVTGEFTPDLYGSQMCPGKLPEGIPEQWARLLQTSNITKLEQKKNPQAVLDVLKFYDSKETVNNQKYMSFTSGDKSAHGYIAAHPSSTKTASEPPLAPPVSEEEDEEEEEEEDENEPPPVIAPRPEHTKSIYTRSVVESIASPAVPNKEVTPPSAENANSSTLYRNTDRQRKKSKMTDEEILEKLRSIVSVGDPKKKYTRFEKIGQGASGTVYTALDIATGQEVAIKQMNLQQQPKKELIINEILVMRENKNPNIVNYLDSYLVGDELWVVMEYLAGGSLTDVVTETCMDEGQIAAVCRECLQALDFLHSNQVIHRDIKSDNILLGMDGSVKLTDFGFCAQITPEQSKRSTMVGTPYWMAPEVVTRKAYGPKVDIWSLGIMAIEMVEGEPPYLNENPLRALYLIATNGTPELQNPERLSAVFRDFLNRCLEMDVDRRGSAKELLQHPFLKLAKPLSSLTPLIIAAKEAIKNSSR", "settings": "singlicate", "from_the_text": "as §1"}, "[3]": {"molecular_target": "320 wild-type protein kinases (Homo sapiens, UniProt P19525)", "sequence (P19525 whole entry)": "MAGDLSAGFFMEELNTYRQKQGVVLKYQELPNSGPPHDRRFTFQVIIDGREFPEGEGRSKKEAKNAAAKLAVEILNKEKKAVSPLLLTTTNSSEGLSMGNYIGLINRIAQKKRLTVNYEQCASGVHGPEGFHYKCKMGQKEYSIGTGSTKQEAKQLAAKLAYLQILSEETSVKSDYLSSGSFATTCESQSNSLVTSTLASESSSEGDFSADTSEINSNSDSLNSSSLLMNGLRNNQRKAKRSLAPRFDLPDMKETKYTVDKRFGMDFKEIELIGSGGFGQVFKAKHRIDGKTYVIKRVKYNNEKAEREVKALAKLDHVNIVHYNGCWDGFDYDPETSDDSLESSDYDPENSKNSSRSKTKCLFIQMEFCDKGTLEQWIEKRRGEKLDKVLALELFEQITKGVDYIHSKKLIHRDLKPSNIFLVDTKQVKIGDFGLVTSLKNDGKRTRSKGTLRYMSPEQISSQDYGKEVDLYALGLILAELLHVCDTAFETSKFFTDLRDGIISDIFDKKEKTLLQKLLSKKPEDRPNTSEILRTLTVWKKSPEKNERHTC", "settings": "singlicate", "from_the_text": "as §1"}, "[4]": {"molecular_target": "T1, 320 wild-type protein kinases (Homo sapiens, UniProt Q9HBY8)", "T1 sequence (Q9HBY8 1-367)": "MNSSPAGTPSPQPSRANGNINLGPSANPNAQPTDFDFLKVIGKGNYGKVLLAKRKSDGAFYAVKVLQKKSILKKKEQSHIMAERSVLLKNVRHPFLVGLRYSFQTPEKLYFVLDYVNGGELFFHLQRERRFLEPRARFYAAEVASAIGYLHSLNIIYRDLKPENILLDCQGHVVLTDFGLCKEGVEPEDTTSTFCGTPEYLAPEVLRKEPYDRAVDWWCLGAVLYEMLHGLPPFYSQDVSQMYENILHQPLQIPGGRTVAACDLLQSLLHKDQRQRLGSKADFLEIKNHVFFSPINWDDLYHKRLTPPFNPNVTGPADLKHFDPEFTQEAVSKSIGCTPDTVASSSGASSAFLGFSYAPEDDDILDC", "settings": "kinase SGK2, singlicate", "from_the_text": "as §1"}, "[5]": {"molecular_target": "T2, 320 wild-type protein kinases (Homo sapiens, UniProt Q08881)", "T2 sequence (Q08881 1-620)": "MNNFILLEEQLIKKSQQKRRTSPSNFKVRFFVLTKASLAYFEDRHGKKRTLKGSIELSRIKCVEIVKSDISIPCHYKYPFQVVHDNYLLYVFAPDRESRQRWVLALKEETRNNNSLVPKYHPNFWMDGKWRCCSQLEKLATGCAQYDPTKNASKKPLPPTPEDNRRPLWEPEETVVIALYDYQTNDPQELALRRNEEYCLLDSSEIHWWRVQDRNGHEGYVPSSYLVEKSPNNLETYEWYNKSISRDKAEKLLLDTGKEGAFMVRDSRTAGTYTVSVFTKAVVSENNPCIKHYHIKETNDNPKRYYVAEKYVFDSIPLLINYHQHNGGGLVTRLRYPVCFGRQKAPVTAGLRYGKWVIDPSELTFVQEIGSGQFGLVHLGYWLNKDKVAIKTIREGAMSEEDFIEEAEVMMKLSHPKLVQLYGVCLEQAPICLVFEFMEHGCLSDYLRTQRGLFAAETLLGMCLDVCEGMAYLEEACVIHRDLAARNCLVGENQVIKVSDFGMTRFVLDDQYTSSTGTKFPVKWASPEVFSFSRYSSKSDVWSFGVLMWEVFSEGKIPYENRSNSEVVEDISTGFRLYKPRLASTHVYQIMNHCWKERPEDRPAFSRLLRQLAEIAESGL", "settings": "ITK, singlicate", "from_the_text": "as §1"}, "[6]": {"molecular_target": "320 wild-type protein kinases (Homo sapiens, UniProt Q00534)", "sequence (Q00534 whole entry)": "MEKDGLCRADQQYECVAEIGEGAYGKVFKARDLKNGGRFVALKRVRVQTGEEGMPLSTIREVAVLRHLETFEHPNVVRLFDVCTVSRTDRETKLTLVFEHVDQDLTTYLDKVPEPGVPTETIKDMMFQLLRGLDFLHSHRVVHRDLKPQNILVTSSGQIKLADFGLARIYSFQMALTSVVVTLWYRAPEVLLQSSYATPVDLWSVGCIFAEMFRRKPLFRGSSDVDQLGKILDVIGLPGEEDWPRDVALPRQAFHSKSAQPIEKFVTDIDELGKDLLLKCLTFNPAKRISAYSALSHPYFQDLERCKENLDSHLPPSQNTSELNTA", "settings": "singlicate", "from_the_text": "as §1"}, "[7]": {"molecular_target": "320 wild-type protein kinases (Homo sapiens, UniProt Q9P1W9)", "settings": "singlicate", "from_the_text": "as §1"}, "[8]": {"molecular_target": "320 wild-type protein kinases (Homo sapiens, UniProt Q05397)", "settings": "singlicate", "from_the_text": "as §1"}, "[9]": {"molecular_target": "320 wild-type protein kinases (Homo sapiens, UniProt P08069)", "sequence (P08069 31-1367)": "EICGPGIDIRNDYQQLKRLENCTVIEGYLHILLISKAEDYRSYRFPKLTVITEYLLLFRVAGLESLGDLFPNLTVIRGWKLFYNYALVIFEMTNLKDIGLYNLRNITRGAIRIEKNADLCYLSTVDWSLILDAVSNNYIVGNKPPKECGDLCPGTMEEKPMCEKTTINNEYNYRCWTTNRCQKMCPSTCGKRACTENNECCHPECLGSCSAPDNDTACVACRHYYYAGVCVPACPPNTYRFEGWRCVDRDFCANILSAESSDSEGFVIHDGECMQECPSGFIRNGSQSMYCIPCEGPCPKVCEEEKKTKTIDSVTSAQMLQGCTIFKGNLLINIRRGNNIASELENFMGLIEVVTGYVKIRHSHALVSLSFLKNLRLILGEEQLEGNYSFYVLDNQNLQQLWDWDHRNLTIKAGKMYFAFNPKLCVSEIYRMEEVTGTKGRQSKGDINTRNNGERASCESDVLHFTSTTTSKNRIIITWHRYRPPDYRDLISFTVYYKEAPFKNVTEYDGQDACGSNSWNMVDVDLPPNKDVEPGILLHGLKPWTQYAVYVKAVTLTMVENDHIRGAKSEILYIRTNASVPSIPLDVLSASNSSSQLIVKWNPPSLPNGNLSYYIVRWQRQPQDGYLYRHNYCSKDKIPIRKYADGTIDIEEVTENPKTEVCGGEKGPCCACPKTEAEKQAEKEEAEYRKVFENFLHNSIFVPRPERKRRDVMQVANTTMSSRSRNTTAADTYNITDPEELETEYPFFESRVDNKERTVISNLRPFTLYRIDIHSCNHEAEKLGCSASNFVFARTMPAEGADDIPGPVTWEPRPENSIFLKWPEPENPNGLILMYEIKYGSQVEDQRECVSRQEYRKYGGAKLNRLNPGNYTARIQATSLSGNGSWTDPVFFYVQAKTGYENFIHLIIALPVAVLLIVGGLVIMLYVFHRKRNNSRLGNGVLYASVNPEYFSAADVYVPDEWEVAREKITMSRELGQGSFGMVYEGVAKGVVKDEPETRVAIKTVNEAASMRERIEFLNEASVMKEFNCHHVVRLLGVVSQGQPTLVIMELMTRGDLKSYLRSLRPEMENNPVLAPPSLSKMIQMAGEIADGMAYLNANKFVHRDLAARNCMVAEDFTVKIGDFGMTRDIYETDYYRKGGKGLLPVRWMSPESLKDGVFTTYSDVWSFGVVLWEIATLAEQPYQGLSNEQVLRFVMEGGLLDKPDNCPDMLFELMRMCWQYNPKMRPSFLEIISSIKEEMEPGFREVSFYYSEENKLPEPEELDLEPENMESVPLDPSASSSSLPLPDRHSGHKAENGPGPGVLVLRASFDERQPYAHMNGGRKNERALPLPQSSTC", "settings": "IGF1-R, singlicate", "from_the_text": "as §1"}, "[10]": {"molecular_target": "320 wild-type protein kinases (Homo sapiens, UniProt O75582)", "sequence (O75582 whole entry)": "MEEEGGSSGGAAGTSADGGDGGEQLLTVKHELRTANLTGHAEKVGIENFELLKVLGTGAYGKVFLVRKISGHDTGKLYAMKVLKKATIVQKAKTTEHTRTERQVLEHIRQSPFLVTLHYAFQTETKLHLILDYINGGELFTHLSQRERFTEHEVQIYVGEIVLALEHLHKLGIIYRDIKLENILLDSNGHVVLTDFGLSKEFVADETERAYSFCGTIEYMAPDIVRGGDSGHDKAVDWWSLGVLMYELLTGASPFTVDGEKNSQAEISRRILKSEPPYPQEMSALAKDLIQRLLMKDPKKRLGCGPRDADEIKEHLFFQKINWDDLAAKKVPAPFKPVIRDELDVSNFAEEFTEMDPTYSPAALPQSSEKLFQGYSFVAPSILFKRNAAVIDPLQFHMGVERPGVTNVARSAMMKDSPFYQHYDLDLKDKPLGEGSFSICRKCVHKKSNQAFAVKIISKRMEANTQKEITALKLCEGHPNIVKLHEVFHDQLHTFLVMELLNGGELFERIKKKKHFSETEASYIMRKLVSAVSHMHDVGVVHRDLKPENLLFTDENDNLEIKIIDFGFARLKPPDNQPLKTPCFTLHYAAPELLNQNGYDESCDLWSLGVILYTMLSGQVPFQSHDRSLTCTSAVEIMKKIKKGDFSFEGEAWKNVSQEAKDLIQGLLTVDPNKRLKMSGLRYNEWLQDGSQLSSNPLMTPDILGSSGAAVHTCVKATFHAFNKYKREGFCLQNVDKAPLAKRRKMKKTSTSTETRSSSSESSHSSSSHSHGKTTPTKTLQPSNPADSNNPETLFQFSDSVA", "settings": "kinase RPS6KA5, singlicate", "from_the_text": "as §1"}, "[11]": {"molecular_target": "320 wild-type protein kinases (Homo sapiens, UniProt Q9H4B4)", "settings": "singlicate", "from_the_text": "as §1"}, "[12]": {"molecular_target": "320 wild-type protein kinases (Homo sapiens, UniProt P53671)", "sequence (P53671 whole entry)": "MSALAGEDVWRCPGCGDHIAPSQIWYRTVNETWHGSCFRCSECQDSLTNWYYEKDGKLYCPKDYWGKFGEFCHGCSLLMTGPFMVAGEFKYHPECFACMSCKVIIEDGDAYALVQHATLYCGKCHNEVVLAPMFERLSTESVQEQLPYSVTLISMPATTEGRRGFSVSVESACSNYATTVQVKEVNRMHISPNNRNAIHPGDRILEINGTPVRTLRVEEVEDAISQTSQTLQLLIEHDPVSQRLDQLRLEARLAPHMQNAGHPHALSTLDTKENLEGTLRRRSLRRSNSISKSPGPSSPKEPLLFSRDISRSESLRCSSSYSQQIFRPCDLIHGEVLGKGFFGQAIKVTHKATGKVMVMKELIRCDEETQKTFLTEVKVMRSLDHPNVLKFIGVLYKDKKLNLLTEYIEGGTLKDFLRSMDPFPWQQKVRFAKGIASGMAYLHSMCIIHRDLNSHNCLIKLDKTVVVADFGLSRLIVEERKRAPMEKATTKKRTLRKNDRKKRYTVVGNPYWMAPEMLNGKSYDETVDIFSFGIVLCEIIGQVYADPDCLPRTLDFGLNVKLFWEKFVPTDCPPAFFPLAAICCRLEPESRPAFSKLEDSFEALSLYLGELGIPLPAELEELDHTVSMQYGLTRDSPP", "settings": "singlicate", "from_the_text": "as §1"}, "[13]": {"molecular_target": "320 wild-type protein kinases (Homo sapiens, UniProt O75716)", "settings": "kinase TSF1, singlicate", "from_the_text": "as §1"}, "[14]": {"molecular_target": "T3, 320 wild-type protein kinases (Homo sapiens, UniProt Q05513)", "T3 sequence (Q05513 1-592)": "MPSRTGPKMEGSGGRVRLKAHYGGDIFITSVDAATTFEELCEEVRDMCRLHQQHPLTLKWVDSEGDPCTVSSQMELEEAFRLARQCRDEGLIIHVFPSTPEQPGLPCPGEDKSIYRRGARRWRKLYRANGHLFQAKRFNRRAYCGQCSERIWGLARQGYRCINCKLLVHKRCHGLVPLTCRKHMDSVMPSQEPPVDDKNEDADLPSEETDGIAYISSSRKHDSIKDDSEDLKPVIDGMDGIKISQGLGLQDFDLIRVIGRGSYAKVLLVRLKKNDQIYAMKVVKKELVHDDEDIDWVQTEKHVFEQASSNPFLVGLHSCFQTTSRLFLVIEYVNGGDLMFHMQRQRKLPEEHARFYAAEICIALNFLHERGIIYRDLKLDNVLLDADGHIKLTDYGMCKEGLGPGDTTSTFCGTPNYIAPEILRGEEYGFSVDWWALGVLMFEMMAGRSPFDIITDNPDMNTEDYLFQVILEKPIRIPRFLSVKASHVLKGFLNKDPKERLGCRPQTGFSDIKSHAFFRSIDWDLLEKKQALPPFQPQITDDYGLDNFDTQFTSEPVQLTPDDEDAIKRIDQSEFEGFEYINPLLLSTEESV", "settings": "PKC-zeta, singlicate", "from_the_text": "as §1"}}, "note": "Read-outs that look alike come from different tables or passages of the source."}
{"smiles": "C#Cc1cc(Nc2ncnc3cc(I)ccc23)ccc1Cl", "note": "[Compound 41]", "values": [{"measurement": "Residual activity, RPS6KA6", "setting": "[1]; assay conc. 1.0E-06 M", "value": "94 % of control"}, {"measurement": "Residual activity, RPS6KA6", "setting": "[1]; assay conc. 1.0E-07 M", "value": "103 % of control"}, {"measurement": "Residual activity", "setting": "[2]; PAK3, 1.0E-06 M", "value": "75 % of control"}, {"measurement": "Residual activity", "setting": "[2]; PAK3, 1.0E-07 M", "value": "96 % of control"}, {"measurement": "Residual activity", "setting": "[3]; EIF2AK2, 1.0E-06 M", "value": "58 % of control"}, {"measurement": "Residual activity", "setting": "[3]; EIF2AK2, 1.0E-07 M", "value": "72 % of control"}, {"measurement": "Residual activity, SGK2", "setting": "[4]; assay conc. 1.0E-06 M", "value": "86 % of control"}, {"measurement": "Residual activity, SGK2", "setting": "[4]; assay conc. 1.0E-07 M", "value": "101 % of control"}, {"measurement": "Residual activity", "setting": "[5]; 1.0E-06 M", "value": "107 % of control"}, {"measurement": "Residual activity", "setting": "[5]; 1.0E-07 M", "value": "99 % of control"}, {"measurement": "Residual activity", "setting": "[6]; CDK6/CycD1, 1.0E-06 M", "value": "98 % of control"}, {"measurement": "Residual activity", "setting": "[6]; CDK6/CycD1, 1.0E-07 M", "value": "92 % of control"}, {"measurement": "Residual activity", "setting": "[6]; CDK6/CycD3, 1.0E-06 M", "value": "103 % of control"}, {"measurement": "Residual activity", "setting": "[6]; CDK6/CycD3, 1.0E-07 M", "value": "102 % of control"}, {"measurement": "Residual activity", "setting": "[7]; PIM2, 1.0E-06 M", "value": "101 % of control"}, {"measurement": "Residual activity", "setting": "[7]; PIM2, 1.0E-07 M", "value": "112 % of control"}, {"measurement": "Residual activity", "setting": "[8]; FAK aa2-1052, 1.0E-06 M", "value": "106 % of control"}, {"measurement": "Residual activity", "setting": "[8]; FAK aa2-1052, 1.0E-07 M", "value": "138 % of control"}, {"measurement": "Residual activity", "setting": "[9]; 1.0E-06 M", "value": "103 % of control"}, {"measurement": "Residual activity", "setting": "[9]; 1.0E-07 M", "value": "109 % of control"}, {"measurement": "Residual activity, RPS6KA5", "setting": "[10]; assay conc. 1.0E-06 M", "value": "99 % of control"}, {"measurement": "Residual activity, RPS6KA5", "setting": "[10]; assay conc. 1.0E-07 M", "value": "112 % of control"}, {"measurement": "Residual activity", "setting": "[11]; PLK3, 1.0E-06 M", "value": "102 % of control"}, {"measurement": "Residual activity", "setting": "[11]; PLK3, 1.0E-07 M", "value": "109 % of control"}, {"measurement": "Residual activity", "setting": "[12]; LIMK2, 1.0E-06 M", "value": "100 % of control"}, {"measurement": "Residual activity", "setting": "[12]; LIMK2, 1.0E-07 M", "value": "92 % of control"}, {"measurement": "Residual activity, TSF1", "setting": "[13]; assay conc. 1.0E-06 M", "value": "94 % of control"}, {"measurement": "Residual activity, TSF1", "setting": "[13]; assay conc. 1.0E-07 M", "value": "93 % of control"}, {"measurement": "Residual activity", "setting": "[14]; 1.0E-06 M", "value": "76 % of control"}, {"measurement": "Residual activity", "setting": "[14]; 1.0E-07 M", "value": "87 % of control"}]}
{"smiles": "C#Cc1cc(Nc2ncnc3cc(OC)c(OC)cc23)ccc1Cl", "note": "[Compound 45]", "values": [{"measurement": "Residual activity, RPS6KA6", "setting": "[1]; assay conc. 1.0E-06 M", "value": "70 % of control"}, {"measurement": "Residual activity, RPS6KA6", "setting": "[1]; assay conc. 1.0E-07 M", "value": "93 % of control"}, {"measurement": "Residual activity", "setting": "[2]; PAK3, 1.0E-06 M", "value": "92 % of control"}, {"measurement": "Residual activity", "setting": "[2]; PAK3, 1.0E-07 M", "value": "98 % of control"}, {"measurement": "Residual activity", "setting": "[3]; EIF2AK2, 1.0E-06 M", "value": "77 % of control"}, {"measurement": "Residual activity", "setting": "[3]; EIF2AK2, 1.0E-07 M", "value": "77 % of control"}, {"measurement": "Residual activity, SGK2", "setting": "[4]; assay conc. 1.0E-06 M", "value": "98 % of control"}, {"measurement": "Residual activity, SGK2", "setting": "[4]; assay conc. 1.0E-07 M", "value": "94 % of control"}, {"measurement": "Residual activity", "setting": "[5]; 1.0E-06 M", "value": "99 % of control"}, {"measurement": "Residual activity", "setting": "[5]; 1.0E-07 M", "value": "88 % of control"}, {"measurement": "Residual activity", "setting": "[6]; CDK6/CycD1, 1.0E-06 M", "value": "86 % of control"}, {"measurement": "Residual activity", "setting": "[6]; CDK6/CycD1, 1.0E-07 M", "value": "96 % of control"}, {"measurement": "Residual activity", "setting": "[6]; CDK6/CycD3, 1.0E-06 M", "value": "105 % of control"}, {"measurement": "Residual activity", "setting": "[6]; CDK6/CycD3, 1.0E-07 M", "value": "95 % of control"}, {"measurement": "Residual activity", "setting": "[7]; PIM2, 1.0E-06 M", "value": "100 % of control"}, {"measurement": "Residual activity", "setting": "[7]; PIM2, 1.0E-07 M", "value": "89 % of control"}, {"measurement": "Residual activity", "setting": "[8]; FAK aa2-1052, 1.0E-06 M", "value": "95 % of control"}, {"measurement": "Residual activity", "setting": "[8]; FAK aa2-1052, 1.0E-07 M", "value": "109 % of control"}, {"measurement": "Residual activity", "setting": "[9]; 1.0E-06 M", "value": "101 % of control"}, {"measurement": "Residual activity", "setting": "[9]; 1.0E-07 M", "value": "122 % of control"}, {"measurement": "Residual activity, RPS6KA5", "setting": "[10]; assay conc. 1.0E-06 M", "value": "107 % of control"}, {"measurement": "Residual activity, RPS6KA5", "setting": "[10]; assay conc. 1.0E-07 M", "value": "104 % of control"}, {"measurement": "Residual activity", "setting": "[11]; PLK3, 1.0E-06 M", "value": "98 % of control"}, {"measurement": "Residual activity", "setting": "[11]; PLK3, 1.0E-07 M", "value": "103 % of control"}, {"measurement": "Residual activity", "setting": "[12]; LIMK2, 1.0E-06 M", "value": "89 % of control"}, {"measurement": "Residual activity", "setting": "[12]; LIMK2, 1.0E-07 M", "value": "94 % of control"}, {"measurement": "Residual activity, TSF1", "setting": "[13]; assay conc. 1.0E-06 M", "value": "104 % of control"}, {"measurement": "Residual activity, TSF1", "setting": "[13]; assay conc. 1.0E-07 M", "value": "95 % of control"}, {"measurement": "Residual activity", "setting": "[14]; 1.0E-06 M", "value": "85 % of control"}, {"measurement": "Residual activity", "setting": "[14]; 1.0E-07 M", "value": "73 % of control"}]}
